In publication PMC10745721, “Chemical Comparison and Identification of Xanthine Oxidase Inhibitors of Dioscoreae Hypoglaucae Rhizoma and Dioscoreae Spongiosae Rhizoma by Chemometric Analysis and Spectrum–Effect Relationship” (Molecules, 2023):

Biological target: xanthine oxidase (Bos taurus, UniProt P80457)
Assay: xanthine oxidase inhibitory assay in vitro (absorbance at 295 nm, uric acid from xanthine)
Assay type: biochemical
Conditions: pure compounds, five concentrations each; read-out: IC50 of xanthine oxidase inhibition
Description: For xanthine oxidase inhibition assay, 600 μL of supernatant was concentrated in a Termovap Sample Concentrator (Hangzhou Miulab Instruments Co., Ltd., Hangzhou, China) at 30 °C until elimination of solvent. The residue was redissolved in 600 μL PBS.
The xanthine oxidase inhibitory activities of DH and DS samples were determined by xanthine oxidase inhibitory activity assay in vitro [25], which was based on the increase in absorbance at 295 nm due to the production of uric acid from xanthine. In brief, 50 µL of DH or DS samples, 30 µL of phosphate buffer (70 Mm, pH 7.5), and 40 µL of xanthine oxidase (0.05 U/mL) were added into a 96-well plate. After preincubation at 25 °C for 8 min, 60 µL of xanthine (300 µM) was added. After incubation at 25 °C for 15 min, the reaction was stopped by adding 20 µL of HCl (1.0 M). The absorbance of the mixture solution was recorded at 295 nm by a microplate reader.
The control sample was prepared by adding PBS instead of tested sample. The background sample was prepared by replacing tested sample with the same volume of PBS. The blank sample was prepared by adding PBS instead of xanthine oxidase solution. All experiments were repeated three times. The inhibition ratio of xanthine oxidase was calculated as follows:Inhibition ratio (%) = [1 − (test sample-background sample/control sample-blank sample)] × 100
DH and DS samples were prepared in a series of concentrations. The xanthine oxidase inhibitory activities of DH and DS samples were evaluated by IC50 values (the concentration of the sample inhibited 50% the activity of the xanthine oxidase, and the IC50 values were calculated by a logarithmic regression curve. As DH and DS samples were mixtures of multiple constituents, the molar concentrations were uncertain. Thus, the IC50 values of anti-xanthine oxidase activities of DH and DS samples were expressed as mg/mL raw drug equivalents.

xanthine oxidase, sequence (P80457 whole entry): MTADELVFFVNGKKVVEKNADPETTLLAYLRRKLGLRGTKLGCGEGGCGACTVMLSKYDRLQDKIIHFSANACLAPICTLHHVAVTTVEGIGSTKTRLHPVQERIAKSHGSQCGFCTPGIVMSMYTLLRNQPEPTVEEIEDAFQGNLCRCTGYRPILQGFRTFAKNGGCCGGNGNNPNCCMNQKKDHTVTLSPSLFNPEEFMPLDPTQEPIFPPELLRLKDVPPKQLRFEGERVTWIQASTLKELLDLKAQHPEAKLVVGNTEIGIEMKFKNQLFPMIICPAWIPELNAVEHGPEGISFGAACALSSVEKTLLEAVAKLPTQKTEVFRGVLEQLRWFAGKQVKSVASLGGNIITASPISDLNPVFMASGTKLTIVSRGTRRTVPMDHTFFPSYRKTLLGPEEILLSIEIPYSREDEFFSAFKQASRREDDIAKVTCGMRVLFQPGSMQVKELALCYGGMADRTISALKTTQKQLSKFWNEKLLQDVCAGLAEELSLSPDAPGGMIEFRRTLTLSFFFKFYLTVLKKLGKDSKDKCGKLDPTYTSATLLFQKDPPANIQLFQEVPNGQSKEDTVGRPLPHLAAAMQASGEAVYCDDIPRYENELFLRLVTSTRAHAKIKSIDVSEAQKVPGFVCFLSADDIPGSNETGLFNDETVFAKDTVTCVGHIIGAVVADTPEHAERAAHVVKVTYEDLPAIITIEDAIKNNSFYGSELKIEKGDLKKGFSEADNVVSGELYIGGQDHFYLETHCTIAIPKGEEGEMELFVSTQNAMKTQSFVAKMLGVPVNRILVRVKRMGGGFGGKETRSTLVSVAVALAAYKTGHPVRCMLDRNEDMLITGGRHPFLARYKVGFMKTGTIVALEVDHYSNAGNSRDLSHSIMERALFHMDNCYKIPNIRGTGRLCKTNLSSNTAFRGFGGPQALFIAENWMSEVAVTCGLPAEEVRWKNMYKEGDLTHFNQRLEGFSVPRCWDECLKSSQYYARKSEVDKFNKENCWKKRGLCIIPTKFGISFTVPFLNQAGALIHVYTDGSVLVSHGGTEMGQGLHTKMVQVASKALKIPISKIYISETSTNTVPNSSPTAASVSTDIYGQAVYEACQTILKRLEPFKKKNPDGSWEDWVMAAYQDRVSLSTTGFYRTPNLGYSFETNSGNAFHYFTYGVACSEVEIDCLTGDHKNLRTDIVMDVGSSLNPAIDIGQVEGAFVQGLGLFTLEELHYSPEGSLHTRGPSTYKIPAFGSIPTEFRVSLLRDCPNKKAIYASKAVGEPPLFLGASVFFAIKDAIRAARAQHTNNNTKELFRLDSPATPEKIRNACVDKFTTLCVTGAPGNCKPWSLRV

IC50	SMILES
220 µM	CO[C@]1(CC[C@@H](C)CO[C@@H]2O[C@H](CO)[C@@H](O)[C@H](O)[C@H]2O)O[C@H]2C[C@H]3[C@@H]4CC=C5C[C@@H](O[C@@H]6O[C@H](CO)[C@@H](O[C@@H]7O[C@@H](C)[C@H](O)[C@@H](O)[C@H]7O)[C@H](O)[C@H]6O[C@@H]6O[C@@H](C)[C@H](O)[C@@H](O)[C@H]6O)CC[C@]5(C)[C@H]4CC[C@]3(C)[C@H]2[C@@H]1C [methyl protodioscin]
200 µM	CC(CCC1(O)OC2CC3C4CC=C5CC(OC6OC(CO)C(OC7OC(C)C(O)C(O)C7O)C(O)C6OC6OC(C)C(O)C(O)C6O)CCC5(C)C4CCC3(C)C2C1C)COC1OC(CO)C(O)C(O)C1O (stereo not shown) [protodioscin]
190 µM	CC(CCC1(O)OC2CC3C4CC=C5CC(OC6OC(CO)C(O)C(OC7OC(CO)C(O)C(O)C7O)C6OC6OC(C)C(O)C(O)C6O)CCC5(C)C4CCC3(C)C2C1C)COC1OC(CO)C(O)C(O)C1O (stereo not shown) [protogracillin]
250 µM	CC1=C(CC[C@@H](C)CO[C@@H]2O[C@H](CO)[C@@H](O)[C@H](O)[C@H]2O)OC2CC3C4CC=C5CC(O[C@@H]6O[C@H](CO)[C@@H](O)[C@H](O[C@@H]7O[C@H](CO)[C@@H](O)[C@H](O)[C@H]7O)[C@H]6O[C@@H]6O[C@@H](C)[C@H](O)[C@@H](O)[C@H]6O)CC[C@]5(C)C4CC[C@]3(C)C12 (stereo partly shown) [pseudoprogracillin]
